Values of other authors, collected in patent US10045960B2, “Coating composition and medical device” (TERUMO KABUSHIKI KAISHA, priority 2012, dated 2018).

Conditions: hydropathy index according to Kyte and Doolittle, J. Mol. Biol., 157, 105-132 (1982)

Compound | H.I. (hydropathy index)
C[C@@H](O)[C@H](N)C(=O)O [Threonine] | −0.7
N=C(N)NCCC[C@H](N)C(=O)O [Arginine] | −4.5
CC(C)[C@H](N)C(=O)O [Valine] | 4.2
N[C@@H](Cc1ccc(O)cc1)C(=O)O [Tyrosine] | −1.3
NCCCC[C@H](N)C(=O)O [Lysine] | −3.9
NC(=O)C[C@H](N)C(=O)O [Asparagine] | −3.5
N[C@@H](CC(=O)O)C(=O)O [Aspartic acid] | −3.5
N[C@@H](Cc1c[nH]c2ccccc12)C(=O)O [Tryptophan] | −0.9
N[C@@H](CS)C(=O)O [Cysteine] | 2.5
N[C@@H](CCC(=O)O)C(=O)O [Glutamic acid] | −3.5
CSCC[C@H](N)C(=O)O [Methionine] | 1.9
N[C@@H](CO)C(=O)O [Serine] | −0.8
N[C@@H](Cc1ccccc1)C(=O)O [Phenylalanine] | 2.8
CC[C@H](C)[C@H](N)C(=O)O [Isoleucine] | 4.5
C[C@H](N)C(=O)O [Alanine] | 1.8
N[C@@H](Cc1c[nH]cn1)C(=O)O [Histidine] | −3.2
